{
  "source": "patent US20260363977A1",
  "about": "“COSMETIC COMPOSITION FOR PREVENTING OR AMELIORATING SKIN DISEASES COMPRISING TRIBULUS TERRESTRIS-DERIVED COMPOUND AS ACTIVE INGREDIENT” (DONGGUK UNIVERSITY INDUSTRY-ACADEMIC COOPERATION FOUNDATION, priority 2022, published 2026)",
  "type_in_all_cases": "cell-based",
  "key": {"tyrosinase [1]": {"tested_on": "tyrosinase", "experiment": "Western blot of tyrosinase expression in CDH11 overexpressing keratinocyte / melanocyte co-culture model (with pCMV control gene model)", "conditions": "10 μM, 48 hours, compared to control group (CON), FIG. 3", "experimental": "(§1) Keratinocytes used were isolated from normal adult skin tissues obtained through repeated cesarean section and circumcision. The cells were dispensed into EpiLife Medium, and bovine pituitary extract (BPE), bovine insulin (BI), hydrocortisone, human epidermal growth factor (EGF), and bovine transferrin (BT) were added and cultured. The cells that had undergone the 3rd~5th passage culture were used in the experiment. The pituitary extract, bovine insulin, hydrocortisone, human epidermal growth factor, and bovine transferrin were used by purchasing from Invitrogen.\n(§2) Melanocytes used were isolated from normal adult skin tissues obtained through repeated cesarean section and circumcision. […]\n(§3) In order to identify the skin whitening and anti-aging effects of 16 candidate materials in Example 1-2, for the skin whitening effect, each of the three types of cell models constructed in the Example 2-1 was treated with the 16 candidate materials at concentrations at which no cytotoxicity is shown in the melanocytes identified in Example 1-1 for 48 hours, and then Western blot was performed to measure the expression of tyrosinase. The experiment was repeated 4 times, and P<0.05 was determined to be significant. […] The experiment was repeated 4 times, and P<0.05 was determined to be significant."}, "tyrosinase [2]": {"tested_on": "tyrosinase", "experiment": "Western blot of tyrosinase expression in ARG2 overexpressing keratinocyte / normal melanocyte co-culture model (with pCMV control gene model)", "conditions": "10 μM, 48 hours, compared to control group (CON), P<0.05, FIG. 3", "experimental": "as §1, §2, §3"}, "Melanocytes": {"tested_on": "Melanocytes", "experiment": "MTT cytotoxicity assay in melanocytes", "conditions": "up to the treatment concentration of 10 μM, 48 hours, FIG. 1", "experimental": "(§4) Melanocytes used were isolated from normal adult skin tissues obtained through repeated cesarean section and circumcision. Dispase 2.4U (#295 825; Roche, Mannheim, Germany) was treated for 1 hour to separate the epidermis, and 0.05% trypsin was treated for 10 minutes to isolate melanocytes. Afterwards, the cells were suspended in Medium 254, and the bovine pituitary extract (BPE), fetal bovine serum (FBS), hydrocortisone, basic fibroblast growth factor (bFGF), bovine transferrin (BT), heparin, and phorbol 12-myristate13-acetate (PMA, Invitrogen) were added and cultured. The cells that had undergone the 3rd~5th passage culture were used in the experiment.\nIn order to identify cytotoxicity of the 136 candidate materials, MTT assays were performed. Melanocytes were treated with the candidate materials by concentration (10, 50, and 100 μM) for 48 hours, and the cell viability was measured to determine the concentration range at which no cytotoxicity of each candidate material is observed."}, "tyrosinase [3]": {"tested_on": "tyrosinase", "experiment": "Western blot of tyrosinase expression in GDA overexpressing keratinocyte / melanocyte co-culture model (with pCMV control gene model)", "conditions": "10 μM, 48 hours, compared to control group (CON), P<0.05, FIG. 3", "experimental": "as §1, §2, §3"}, "tyrosinase [4]": {"tested_on": "tyrosinase", "experiment": "Western blot of intracellular tyrosinase expression in melanocytes (skin whitening effect)", "conditions": "T13 at 10 μM, 48 hours, compared to control group (CON), repeated 4 times or more, FIG. 2", "experimental": "as §4\nIn order to identify the skin whitening effect of the 136 candidate materials, Western blot was performed. After treating melanocytes with the candidate material at a concentration at which no cytotoxicity was shown in the melanocytes identified in Example 1-2 for 48 hours, intracellular tyrosinase expression was measured. The experiment was repeated 4 times or more."}, "tyrosinase; p16 (Ink4a)": {"tested_on": "tyrosinase; p16 (Ink4a)", "experiment": "Combined analysis of skin whitening (tyrosinase in three cell models) and anti-aging (p16 in keratinocytes) effects", "conditions": "5 of 16 candidate materials; non-cytotoxic concentrations; 48 hours", "experimental": "Keratinocytes were seeded in a culture container at 2×10^5/ml, after 24 hours, pCMV plasmids containing one of three genes [arginase 2 (ARG2, NCBI Gene ID: 384), cadherin 11 (CDH11, NCBI Gene: 1009), and guanine deaminase (GDA, NCBI Gene: 9615)] were transfected into cells using Lipofectamine 2000 to induce overexpression, and after 4 hours of culture with Dulbecco's Modified Essential Medium (DMEM) culture medium without supplements, 0.5×10^5/ml melanocytes were mixed with the keratinocyte culture medium containing supplements and co-cultured in the same culture container. After 24 hours, the keratinocyte culture medium without supplements was replaced, and after 5 hours, the normal melanocytes were treated with the 16 candidate materials for 48 hours. […]\nas §3"}, "p16 (Ink4a)": {"tested_on": "p16 (Ink4a)", "experiment": "Western blot of p16 (Ink4a) expression in keratinocytes (anti-aging effect)", "conditions": "10 μM, 48 hours, compared to control group (CON), P<0.05, FIG. 4", "experimental": "as §1\nIn order to identify the skin whitening and anti-aging effects of 16 candidate materials in Example 1-2, for the skin whitening effect, each of the three types of cell models constructed in the Example 2-1 was treated with the 16 candidate materials at concentrations at which no cytotoxicity is shown in the melanocytes identified in Example 1-1 for 48 hours, and then Western blot was performed to measure the expression of tyrosinase. The experiment was repeated 4 times, and P<0.05 was determined to be significant. In addition, for analysis on the anti-aging effect, the keratinocytes were treated with the above 16 candidate materials for 48 hours each, and then Western blot was performed to measure the expression of p16 (Ink4a). The experiment was repeated 4 times, and P<0.05 was determined to be significant."}},
  "data": [
    {"compound": "COc1cc([C@@H](O)[C@H](CO)c2ccc(O)c(OC)c2)ccc1O", "note": "[T13]", "values": [
      {"measurement": "tyrosinase expression, CDH11 overexpressing co-cultured cell model", "setting": "tyrosinase [1]; CDH11 model", "result": "tyrosinase expression was reduced"},
      {"measurement": "tyrosinase expression, control gene overexpressing co-cultured cell model (pCMV)", "setting": "tyrosinase [1]; pCMV model of the CDH11 experiment", "result": "did not show a significant difference in expression"},
      {"measurement": "tyrosinase expression, ARG2 overexpressing co-cultured cell model", "setting": "tyrosinase [2]; ARG2 model, more distinct than in pCMV model", "result": "degree of reduction in tyrosinase expression was more distinct"},
      {"measurement": "tyrosinase expression, control gene overexpressing co-cultured cell model (pCMV)", "setting": "tyrosinase [2]; pCMV model of the ARG2 experiment", "result": "significant decrease in tyrosinase expression"},
      {"measurement": "cytotoxicity in melanocytes (cell viability, MTT)", "setting": "Melanocytes", "result": "did not show cytotoxicity"},
      {"measurement": "tyrosinase expression, GDA overexpressing co-cultured cell model", "setting": "tyrosinase [3]; GDA model, more distinct than in pCMV model", "result": "degree of reduction in tyrosinase expression was more distinct"},
      {"measurement": "tyrosinase expression, control gene overexpressing co-cultured cell model (pCMV)", "setting": "tyrosinase [3]; pCMV model of the GDA experiment", "result": "significant reduction in tyrosinase expression"},
      {"measurement": "intracellular tyrosinase expression in melanocytes", "setting": "tyrosinase [4]", "result": "significantly reduced"},
      {"measurement": "skin whitening and anti-aging effects shown together", "setting": "tyrosinase; p16 (Ink4a)", "result": "skin whitening and anti-aging effects were shown together"},
      {"measurement": "p16 (Ink4a) expression in keratinocytes", "setting": "p16 (Ink4a)", "result": "significantly reduced"}
    ]}
  ]
}
